Several values for one entry are separate records, joined by “and”; a condition that tells them apart may be missing. Equal values may be shown once. Inconclusive results and toxic doses are left out.

Data on 22 compounds can be found in PubChem BioAssay AID248 (DTP/NCI, 2004).

The assay relates to L1210 leukemia ip in BDF1 mice, survival T/C. Description: NCI In Vivo Anticancer Drug Screen. Data for tumor model L1210 Leukemia (intraperitoneal) in B6D2F1 (BDF1) mice. As to conditions: higher = longer survival. In a few lines: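 Transplanted-tumor mice were given test agent; controls received vehicle only. Survival readings from the two groups were divided (treated over control).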

Where [1] appears, read: endpoint: mean survival time, dose: 100.0 mg/kg/injection, schedule: Q01DX001 (ip), vehicle: saline with Tween-80.
Setting [2] is: endpoint: mean survival time, dose: 100.0 mg/kg/injection, schedule: Q01DX009 (ip), vehicle: saline with Tween-80.
[3] abbreviates: endpoint: mean survival time, dose: 100.0 mg/kg/injection, schedule: Q04DX002 (ip), vehicle: saline with Tween-80.
[4] abbreviates: endpoint: mean survival time, dose: 200.0 mg/kg/injection, schedule: Q01DX001 (ip), vehicle: saline with Tween-80.
[5] abbreviates: endpoint: mean survival time, dose: 200.0 mg/kg/injection, schedule: Q01DX009 (ip), vehicle: saline with Tween-80.
Setting [6] is: endpoint: mean survival time, dose: 200.0 mg/kg/injection, schedule: Q04DX002 (ip), vehicle: saline with Tween-80.
The mark [7] stands for this setting: endpoint: mean survival time, dose: 400.0 mg/kg/injection, schedule: Q01DX001 (ip), vehicle: saline with Tween-80.
[8] abbreviates: endpoint: mean survival time, dose: 400.0 mg/kg/injection, schedule: Q01DX009 (ip), vehicle: saline with Tween-80.
[9] abbreviates: endpoint: mean survival time, dose: 400.0 mg/kg/injection, schedule: Q04DX002 (ip), vehicle: saline with Tween-80.
[10] abbreviates: endpoint: mean survival time, dose: 100.0 mg/kg/injection, schedule: Q01DX001 (ip), vehicle: saline.
The mark [11] stands for this setting: endpoint: mean survival time, dose: 100.0 mg/kg/injection, schedule: Q04DX003 (ip), vehicle: saline.
The mark [12] stands for this setting: endpoint: mean survival time, dose: 12.5 mg/kg/injection, schedule: Q01DX009 (ip), vehicle: saline.
The mark [13] stands for this setting: endpoint: mean survival time, dose: 25.0 mg/kg/injection, schedule: Q01DX009 (ip), vehicle: saline.
[14] abbreviates: endpoint: mean survival time, dose: 50.0 mg/kg/injection, schedule: Q01DX009 (ip), vehicle: saline.
Where [15] appears, read: endpoint: mean survival time, dose: 50.0 mg/kg/injection, schedule: Q01DX001 (ip), vehicle: carboxymethylcellulose (CMC).
Where [16] appears, read: endpoint: mean survival time, dose: 100.0 mg/kg/injection, schedule: Q01DX001 (ip), vehicle: carboxymethylcellulose (CMC).
[17] abbreviates: endpoint: mean survival time, dose: 200.0 mg/kg/injection, schedule: Q01DX001 (ip), vehicle: carboxymethylcellulose (CMC).
The mark [18] stands for this setting: endpoint: mean survival time, dose: 200.0 mg/kg/injection, schedule: Q04DX003 (ip), vehicle: saline.
Where [19] appears, read: endpoint: mean survival time, dose: 400.0 mg/kg/injection, schedule: Q04DX003 (ip), vehicle: saline.
[20] abbreviates: endpoint: mean survival time, dose: 100.0 mg/kg/injection, schedule: Q01DX009 (ip), vehicle: saline.
[21] abbreviates: endpoint: mean survival time, dose: 200.0 mg/kg/injection, schedule: Q01DX009 (ip), vehicle: saline.
Where [22] appears, read: endpoint: mean survival time, dose: 400.0 mg/kg/injection, schedule: Q01DX009 (ip), vehicle: saline.

On to `O=C(O)c1ccc(N=Cc2cccc([N+](=O)[O-])c2)cc1`, for which the T/C is 106 % of control under setting [1]; 100 % of control and 91 % of control under setting [2]; 97 % of control and 91 % of control under setting [3]; 92 % of control under setting [4]; 98 % of control and 122 % of control under setting [5]; 93 % of control and 91 % of control under setting [6]. The T/C is, setting by setting: under setting [7], 95 % of control; under setting [8], 102 % of control and 88 % of control; under setting [9], 93 % of control and 88 % of control.
`CCOC(=O)C1(C(=O)OCC)C2CC(C)=C(C)CC21` (configuration not stated): the T/C was 92 % of control (endpoint: mean survival time, dose: 50.0 mg/kg/injection, schedule: Q01DX009 (ip), vehicle: acetone) and 90 % of control (endpoint: mean survival time, dose: 100.0 mg/kg/injection, schedule: Q01DX009 (ip), vehicle: acetone).
As to `CN(C)CCCN(C)CCCCN(C)CCCN(C)C`, the T/C under setting [10] is 96 % of control.
Regarding `CCOC(=O)c1oc2ccc(OC)c(C(C)=O)c2c1C`, the T/C was 103 % of control under setting [3], 107 % of control under setting [6] and 94 % of control under setting [9].
For the compound `Cc1ccc(-c2ccc3sc(C)[n+](C)c3c2)cc1`, the T/C under setting [11] is 92 % of control.
As for `Cc1c[n+]([O-])ccc1N=NN(C)c1ccccc1C`, the T/C runs as follows: (endpoint: mean survival time, dose: 18.75 mg/kg/injection, schedule: Q04DX002 (ip), vehicle: saline with Tween-80) 102 % of control; (endpoint: mean survival time, dose: 37.5 mg/kg/injection, schedule: Q04DX002 (ip), vehicle: saline with Tween-80) 105 % of control; (endpoint: mean survival time, dose: 75.0 mg/kg/injection, schedule: Q04DX002 (ip), vehicle: saline with Tween-80) 102 % of control; under setting [6], 86 % of control.
Regarding `CCOC(=O)c1ccc(C(=O)OCC)nc1`, the T/C was 109 % of control under setting [12]; 94 % of control under setting [13]; 101 % of control under setting [14]; 87 % of control under setting [2]; 101 % of control (endpoint: mean survival time, dose: 100.0 mg/kg/injection, schedule: Q04DX003 (ip), vehicle: saline with Tween-80); 106 % of control (endpoint: mean survival time, dose: 200.0 mg/kg/injection, schedule: Q04DX003 (ip), vehicle: saline with Tween-80). Also, the T/C (endpoint: mean survival time, dose: 400.0 mg/kg/injection, schedule: Q04DX003 (ip), vehicle: saline with Tween-80) was 103 % of control.
For the compound `O=C(NC/C=C/Br)Nc1c2ccccc2nc2ccccc12`, the T/C under setting [12] is 102 % of control, the T/C under setting [13] was 102 % of control and the T/C under setting [14] is 109 % of control.
As to `CCC1(c2ccccc2)C(=O)N(COCc2ccccc2)C(=O)N(COCc2ccccc2)C1=O`, the T/C was 98 % of control under setting [2]; 98 % of control under setting [3]; 102 % of control under setting [5]; 95 % of control under setting [6]; 95 % of control under setting [8]; 98 % of control under setting [9].
As to `C=C1C(=O)OC2CCCCC3OC3C12` (configuration not stated), the T/C under setting [1] is 102 % of control.
With `Cc1cccc(NC(=O)N2CCN(c3ccccc3)CC2)c1`, the T/C by setting is: under setting [15], 106 % of control; under setting [16], 101 % of control; under setting [17], 101 % of control; (endpoint: mean survival time, dose: 400.0 mg/kg/injection, schedule: Q01DX001 (ip), vehicle: carboxymethylcellulose (CMC)) 104 % of control.
For the compound `CCc1c(Nc2ccc(C)c(C)c2)[nH]c(N)nc1=S`, the T/C runs as follows: (endpoint: mean survival time, dose: 100.0 mg/kg/injection, schedule: Q01DX Z (ip), vehicle: methylcellulose (MC)) 87 % of control; (endpoint: mean survival time, dose: 200.0 mg/kg/injection, schedule: Q01DX Z (ip), vehicle: methylcellulose (MC)) 109 % of control.
With `C=C(C)/C=C(\C)CC(=C)C`, the T/C under setting [11] was 97 % of control, the T/C under setting [18] was 105 % of control and the T/C under setting [19] was 96 % of control.
On to `O=[N+]([O-])c1ccc(OCCCBr)c(Cl)c1`, for which the T/C was 103 % of control under setting [20], 108 % of control under setting [21] and 120 % of control under setting [22].
Regarding `CCO/C=C/C(=O)NC(=O)NC1CC(O)C(CO)C1` (configuration not stated), the T/C under setting [14] is 104 % of control, the T/C under setting [20] is 107 % of control and the T/C under setting [21] was 93 % of control.
Take `COn1c(CC(=O)C(=O)O)cccc1=O`: the T/C reads like this: under setting [11], 102 % of control; under setting [18], 97 % of control; under setting [19], 94 % of control.
In the case of `N#CCCCSC(=N)N`, the T/C is, setting by setting: under setting [10], 106 % of control; (endpoint: mean survival time, dose: 200.0 mg/kg/injection, schedule: Q01DX001 (ip), vehicle: saline) 104 % of control.
`CC#CCOCC1CNC(=O)O1` (configuration not stated): the T/C is 98 % of control under setting [13]; 105 % of control (endpoint: mean survival time, dose: 25.0 mg/kg/injection, schedule: Q04DX003 (ip), vehicle: saline); 93 % of control under setting [14]; 97 % of control (endpoint: mean survival time, dose: 50.0 mg/kg/injection, schedule: Q04DX003 (ip), vehicle: saline); 93 % of control under setting [20]; 97 % of control under setting [11]. Besides, the T/C under setting [21] is 102 % of control, the T/C under setting [18] was 103 % of control, the T/C under setting [22] was 104 % of control and the T/C under setting [19] is 103 % of control.
With `CCOC(=O)C1=C(C)C(C)C(=O)NC1=O` (configuration not stated), the T/C under setting [1] was 100 % of control; the T/C under setting [4] was 101 % of control; the T/C under setting [5] is 110 % of control; the T/C under setting [7] is 96 % of control; the T/C under setting [8] is 96 % of control.
`Nc1ncnc(N)n1`: the T/C under setting [15] was 98 % of control, the T/C under setting [16] is 101 % of control and the T/C under setting [17] is 101 % of control.
`CC(=O)N(C)N=O`: the T/C is, setting by setting: (endpoint: mean survival time, dose: 10.0 mg/kg/injection, schedule: Q01DX001 (ip), vehicle: saline) 115 % of control; (endpoint: mean survival time, dose: 20.0 mg/kg/injection, schedule: Q01DX001 (ip), vehicle: saline) 115 % of control; (endpoint: mean survival time, dose: 30.0 mg/kg/injection, schedule: Q01DX001 (ip), vehicle: saline) 115 % of control; (endpoint: mean survival time, dose: 40.0 mg/kg/injection, schedule: Q01DX001 (ip), vehicle: saline) 114 % of control.
With `CCCCCN(C)/N=N/c1nc[nH]c1C(N)=O`, the T/C (endpoint: mean survival time, dose: 7.5 mg/kg/injection, schedule: Q01DX Z (ip), vehicle: carboxymethylcellulose (CMC)) is 102 % of control; the T/C (endpoint: mean survival time, dose: 10.0 mg/kg/injection, schedule: Q01DX Z (ip), vehicle: carboxymethylcellulose (CMC)) was 110 % of control; the T/C (endpoint: mean survival time, dose: 11.0 mg/kg/injection, schedule: Q01DX009 (ip), vehicle: carboxymethylcellulose (CMC)) was 101 % of control; the T/C (endpoint: mean survival time, dose: 15.0 mg/kg/injection, schedule: Q01DX Z (ip), vehicle: carboxymethylcellulose (CMC)) was 119 % of control; the T/C (endpoint: mean survival time, dose: 16.75 mg/kg/injection, schedule: Q01DX009 (ip), vehicle: carboxymethylcellulose (CMC)) is 100 % of control; the T/C (endpoint: mean survival time, dose: 25.0 mg/kg/injection, schedule: Q01DX009 (ip), vehicle: carboxymethylcellulose (CMC)) was 118 % of control. Also, the T/C by setting is: (endpoint: mean survival time, dose: 37.5 mg/kg/injection, schedule: Q01DX009 (ip), vehicle: carboxymethylcellulose (CMC)) 124 % of control; (endpoint: mean survival time, dose: 75.0 mg/kg/injection, schedule: Q01DX Z (ip), vehicle: carboxymethylcellulose (CMC)) 117 % of control; under setting [16], 119 % of control; (endpoint: mean survival time, dose: 100.0 mg/kg/injection, schedule: Q01DX009 (ip), vehicle: carboxymethylcellulose (CMC)) 154 % of control; (endpoint: mean survival time, dose: 120.0 mg/kg/injection, schedule: Q01DX015 (ip), vehicle: carboxymethylcellulose (CMC)) 96 % of control; (endpoint: mean survival time, dose: 178.0 mg/kg/injection, schedule: Q01DX001 (ip), vehicle: carboxymethylcellulose (CMC)) 108 % of control. Moreover, the T/C was 152 % of control under setting [17]; 117 % of control (endpoint: mean survival time, dose: 267.0 mg/kg/injection, schedule: Q01DX001 (ip), vehicle: carboxymethylcellulose (CMC)); 123 % of control (endpoint: mean survival time, dose: 600.0 mg/kg/injection, schedule: Q01DX001 (ip), vehicle: carboxymethylcellulose (CMC)); 112 % of control (endpoint: median survival time, dose: 12.5 mg/kg/injection, schedule: Q01DX011 (ip), vehicle: steriod suspending solution); 112 % of control (endpoint: median survival time, dose: 25.0 mg/kg/injection, schedule: Q01DX011 (ip), vehicle: steriod suspending solution); 218 % of control (endpoint: median survival time, dose: 100.0 mg/kg/injection, schedule: Q01DX011 (ip), vehicle: steriod suspending solution).
